According to patent US20140031296A1, “NEW SYNTHETIC PEPTIDES AND THEIR USE” (PERGAMUM AB, priority 2011, published 2014):

How the values were obtained:
[1] = test system: TNF-α production in LPS stimulated THP-1 cells; test: Inhibition of TNF-α production in LPS stimulated THP-1 cells (ELISA); assay type: cell-based, human; settings: mean relative secretion, basal = 0%; for TNF-α at 40 μM peptide: LPS-stimulated level without peptide = 100%; for TNF-α at 4 μM peptide / TNF-α at 10 μM peptide: stimulated = 100%
Experimental: After 6 hours of incubation at +37° C., 5% CO2 and in a humid atmosphere, the cell supernatants were collected, centrifuged and kept frozen in −20° C. until analyzed for TNF-α content by ELISA (R&D Systems, Minneapolis, Minn., USA). The results are presented as mean relative secretion (%), with stimulated TNF-α level without peptide added set to 100% and basal secretion set to 0% (Table 2).
After 6 hours of incubation, the cell supernatants were collected, centrifuged, and kept frozen in −20° C. until analyzed for TNF-α content by ELISA (R&D Systems, Minneapolis, Minn., USA). The results are presented as mean relative secretion (%), with stimulated TNF-α level without peptide added set to 100% and basal secretion set to 0% (Table 5).

[2] = test system: S. aureus (CCUG 1800); test: Minimal microbicidal concentration (MMC99) assay, S. aureus; assay type: cell-based; settings: 2 hours; for MMC99 μM in 50% SWF: 50% heat inactivated simulated wound fluid
Experimental: Antimicrobial Activity was Measured as Bactericidal Effect on S. aureus Using Minimal Microbicidal Concentration, MMC99, Assay)
S. aureus (#1800; CCUG, Gothenburg, Sweden) cultured on blood-agar plates [Columbia agar (Oxoid, Basingstoke, UK) supplemented with 5% defibrinated horse blood (National Veterinary Institute (SVA), Uppsala, Sweden)] were transferred to brain heart infusion broth (3.7% BHI; Difco, BD Diagnostics, Franklin Lakes, N.J., USA) and incubated in a shaker at 250 rpm+37° C. over night. The culture was thereafter be diluted 1:10 in fresh BHI broth and incubated for additional two hours to reach log-phase growth. The bacteria were pelleted and suspended in 1% BHI medium (BHI broth diluted 100 times in ultra-pure water) to a concentration of 10^7 bacteria/ml as estimated by measuring optical density at 600 nm. Peptides were serially diluted by two-fold steps from 160 μM to 1.25 μM in 1% BHI medium. The peptides (100 μl) were thereafter incubated with bacteria (5 μl á 10^7 bact./ml) for 2 hours at +37° C. Drops (5 μl) of the suspension were placed on blood agar plates. The blood agar plates were incubated over night at +37° C. The MMC99 values, i.e. the lowest peptide concentration needed to achieve a 99% reduction of viable bacteria, were recorded (Table 3). The concentration of the bacterial suspension used in the assay was confirmed by viable counts on blood agar plates.
S. aureus (#1800; CCUG, Gothenburg, Sweden) cultured on blood-agar plates [Columbia agar (Oxoid, Basingstoke, UK) supplemented with 5% defibrinated horse blood (National Veterinary Institute (SVA), Uppsala, Sweden)] were transferred to brain heart infusion broth (3.7% BHI; Difco, BD Diagnostics, Franklin Lakes, N.J., USA) and incubated in a shaker at 250 rpm+37° C. over night. The culture was thereafter be diluted 1:10 in fresh BHI broth and incubated for additional two hours to reach log-phase growth. The bacteria were pelleted and suspended in 1% BHI medium (BHI broth diluted 100 times in ultra-pure water) to a final concentration of 10^7 bacteria/ml as estimated by measuring optical density at 600 nm.
Peptides were serially diluted by two-fold steps from 400 μM to 0.78 μM in either 1% BHI medium or in 50% heat inactivated simulated wound fluid [SWF, containing 1 part 0.1% peptone (Oxoid, Basingstoke, UK) in saline and 1 part fetal bovine serum, diluted 2 times in ultra-pure water].
The peptides (100 μl) were thereafter incubated with bacteria (5 μl a 10^7 bact./ml) for 2 hours at +37° C. Drops (5 μl) of the suspension were placed on blood agar plates. The blood agar plates were incubated over night at +37° C. The MMC99 values, i.e. the lowest peptide concentration needed to achieve a 99% reduction of viable bacteria were recorded (Table 6). The concentration of the bacterial suspension used in the assay was confirmed by viable counts on blood agar plates.
The antimicrobial effects of the peptides 232 (SEQ ID NO: 78), and 220 (SEQ ID NO:67) were analysed by MMC99 (minimal microbicidal concentration) assay against S. aureus (CCUG 1800), MRSA (CCUG 41879), P. aeruginosa (ATCC 15442), E. coli (CCUG 31246), S. pyogenes (CCUG 4207), P. acnes (CCUG 1794T), S. epidermidis (ATCC12228), K. pneumoniae (ATCC 13883), A. baumannii (ATCC 19606), and C. albicans (ATCC 64549). The peptides were purchased from Biopeptide Company (San Diego, Calif., USA) and Bachem AG (Bubendorf, Switzerland) and results are presented in Table 8A and 8B respectively.
Peptides were serially diluted in two different assay medium, 1% BHI medium (brain-heart infusion medium) or 50% heat inactivated simulated wound fluid (SWF), and thereafter incubated with the microorganisms for 2 hours. Drops of the suspension were placed on blood agar plates. The MMC99 values, i.e. the lowest peptide concentration needed to achieve a 99% reduction of viable microorganisms, were recorded. As presented in Table 8, all the peptides have the ability to kill microorganisms frequently appearing in infections. […]

[3] = screen 1, 99% reduction of viable bacteria

Row | Sequence | TNF-α at 40 μM peptide ([1]; screen 1) | MMC99 μM in 1% BHI medium [2, 3] | TNF-α at 4 μM peptide ([1]; screen 2) | TNF-α at 10 μM peptide ([1]; screen 2) | MMC99 μM in 1% BHI medium ([2]; screen 2) | MMC99 μM in 50% SWF ([2]; screen 2) | TNF-α at 40 μM peptide ([1]; screen 2)
1 | SQPEATKCFQWQRNMRKVR [Peptide 101] | 116% | >160 µM |  |  |  |  | 
2 | TQPDATKCFQWQRNMRKVR [Peptide 103] | 135% | >160 µM |  |  |  |  | 
3 | WCKLWRRLMRKVRR [Peptide 241] |  |  | 92.7% | 57.9% | 12.5 µM | 25 µM | 
4 | WCRWLRKMVKAL [Peptide 248] |  |  | 87.1% | 80.2% | 25 µM | 50 µM | 24.2%
5 | WFQWKRRMRKVR [Peptide 129] | 91% | 10 µM |  |  |  |  | 
6 | WFQWQRNMRKVR [Peptide 128] | 104% | 20 µM |  |  |  |  | 
7 | WRRWLRKMVKRL [Peptide 249] |  |  | 91.2% | 78.0% | 12.5 µM | 6.25 µM | −0.7%
